Experiments:
[1] = biological target: Pgp in LLC-MDR1 monolayers (Homo sapiens, UniProt P08183); settings: Rho123 2 µM
[2] = biological target: T1, Pgp in RBE4-MDR1-EGFP cells (Homo sapiens, UniProt P08183); assay: Rhodamine 123 uptake/accumulation assay, RBE4-MDR1-EGFP cells; assay type: cell-based, rat; settings: RBE4-MDR1-EGFP in the presence of doxycycline; tariquidar 0.5 µM
T1 construct: expressed in transfected cells; host or cells: RBE4 (rat BCEC line), lentiviral transduction, doxycycline-inducible
Procedure: Piet Borst (The Netherlands Cancer Institute, Amsterdam, The Netherlands) as template. The linker sequence in the vector fusing EGFP and MDR1 consists of 36 bp ([…]). hCMEC/D3-WT, RBE4-WT, and hCMEC/D3-MDR1-EGFP cell lines were cultivated as previously described. The same culture conditions were used for the newly prepared RBE4-MDR1-EGFP cell line. As described previously, hydrocortisone (1.4 µM) was added to the culture medium to enhance the expression and functionality of Pgp and transendothelial resistance. All endothelial cell lines were grown on rat-tail collagen I (60 µg/mL, Gibco) coated 100 mm cultures dishes or permeable membrane supports at 37 °C and 5% CO2. Pgp-EGFP protein expression in MDR1-EGFP transduced cells was induced by cell cultivation in medium containing […] doxycycline. Expression of Pgp-EGFP was regularly verified by observing the cells with an inverted fluorescence microscope. Doxycycline supplementation of the medium was maintained during the whole culturing period of Pgp-EGFP expressing cells. For experiments, hCMEC/D3 and RBE4 cells were seeded in a density of 50,000 cells/cm^2. Immortalized MDR1 transfected porcine kidney LLC-PK1 (LLC-MDR1) cells, which were used as a reference standard for vectorial transport experiments, were kindly provided by Prof. Piet Borst. […]

Pgp in RBE4-WT cells = assay: Rhodamine 123 uptake/accumulation assay, RBE4-WT cells; assay type: cell-based, rat
Procedure: The functionality of Pgp in RBE4-WT, RBE4-MDR1-EGFP, hCMEC/D3-WT, hCMEC/D3-MDR1-EGFP cells, and primary rBCECs was analyzed by measuring the uptake of the fluorescent Pgp substrate Rho123 (Sigma-Aldrich). Cells were grown on 6-well plates and cultured for seven days in the presence or absence of doxycycline (1 µg/mL, Biochrom). […] Afterward, Rho123 (5 µM, dissolved in ethanol) was added and cells were incubated for another two hours. Rho123 transport was terminated by washing the cells twice with ice-cold PBS. Intracellular Rho123 concentration was determined by cell lysis in standard lysis buffer (25 mM Tris, 50 mM NaCl, 0.5% (w/v) sodium deoxycholate, 0.5% (w/v) Triton X-100) and measurement of fluorescence intensity with the FLUOstar OPTIMA (ex.: 485 nm, em.: 520 nm; BMG Labtech). Protein concentrations were determined using a BCA assay kit (Thermo Fisher Scientific). Rho123 uptake was obtained for each condition in triplicates and calculated as absolute fluorescence per mg protein. Additionally, Pgp functionality was expressed as multidrug resistance activity factor (MAF) as described by Huber et al.. This factor describes Pgp efflux activity based on differences in intracellular Rho123 accumulation in cells after Pgp inhibition compared to cells with active Pgp-mediated efflux. Thus, higher MAF values correlate with increased Pgp activity. For better comparison, differences in Rho123 accumulation are normalized to intracellular Rho123 levels in inhibitor-treated cells. MAF values for Pgp were calculated according to Huber et al. 2012 utilizing the following equation: MAF (%) = 100 · (MFITQ − MFI0)/(MFITQ) where MFITQ and MFI0 represent the mean fluorescence intensity of intracellular Rho123 in tariquidar (TQ)-treated and non-treated cells, respectively.

[3] = system: Pgp in primary rBCEC monolayers; assay: Concentration equilibrium transport assay (CETA), primary rBCEC monolayers; assay type: in vitro ADME, rat; settings: Rho123 2 µM; primary rBCECs
Procedure: For these experiments, a concentration equilibrium transport assay (CETA) was used, which is more sensitive to identify Pgp substrates than conventional bidirectional (concentration gradient) transport assays. In the CETA, the drug is added to both (apical and basolateral) sides of the monolayer, so that the initial drug concentration is the same in both compartments, thereby minimizing the effect of passive diffusion across the cell monolayer.
Additionally, vectorial drug transport across RBE4-MDR1-EGFP, hCMEC/D3-MDR1-EGFP, LLC-MDR1, and primary rBCEC monolayers was studied using 2 µM Rho123 as a fluorescent Pgp substrate essentially following the same protocol as described for [^3H]dLop. Transport was measured using a FLUOstar OPTIMA fluorescence reader (ex.: 485 nm, em.: 520 nm; BMG Labtech), analyzing samples from basolateral and apical compartments collected at the various time points.

## COC(=O)c1ccccc1-c1c2ccc(=N)cc-2oc2cc(N)ccc12 [Rho123, rhodamine 123]
[1]
  vectorial transport in CETA: significant vectorial transport was observed
[2]
  increase of Rho123 efflux (accumulation in absence vs presence of tariquidar): ~ 7 fold
Pgp in RBE4-WT cells; Rho123 5 µM, 2 h, without tariquidar
  intracellular Rho123 accumulation: 86,513 ± 2021 absolute fluorescence per mg p
Pgp in RBE4-WT cells; with vs without tariquidar 0.5 µM
  multidrug resistance activity factor (MAF) from intracellular Rho123 accumulation: 37.5% ± 4.2
[3]
  vectorial transport in CETA (apical vs basolateral concentrations): significantly higher in the apical vs. basolateral chambers

From paper PMC8330100, “Similarities and differences in the localization, trafficking, and function of P-glycoprotein in MDR1-EGFP-transduced rat versus human brain capillary endothelial cell lines” (Fluids and Barriers of the CNS, 2021)
